The values that follow come from patent publication US8680139B2 (Progenra, priority 2009, dated 2014).

In general, GI50 refers to the concentration giving 50% growth inhibition. Lower therefore signals more potent growth inhibition. What is called EC50 is the midpoint of the concentration-response curve.

The test system of series [1] is A549/ATCC. Briefly: NCI-60 Human Tumor Cell Line Growth Inhibition Screen. In kind it is cell-based. As to conditions: Non-Small Cell Lung Cancer, 48 hours, SRB. The procedure: (§1) Various human tumor cell lines representing the NCI-60 cancer screening panel were grown in RPMI 1640 medium containing 5% fetal bovine serum and 2 mM L-glutamine. For a typical screening experiment, cells were inoculated into 96 well microtiter plates in 100 μL at plating densities ranging from 5,000 to 40,000 cells/well depending on the doubling time of individual cell lines. After cell inoculation, the microtiter plates were incubated at 37° C., 5% CO2, 95% air and 100% relative humidity for 24 hours prior to addition of the test compound. After 24 hours, two plates of each cell line were fixed in situ with TCA, to represent a measurement of the cell population for each cell line at the time of test compound addition (Tz). Experimental test compounds were solubilized in 100% (v/v) DMSO at 400-fold the desired final maximum test concentration and stored frozen prior to use. At the time of test compound addition, an aliquot of frozen concentrate was thawed and diluted to twice the desired final maximum test concentration with complete medium containing 50 μg/ml gentamicin. Additional four, 10-fold or ½ log serial dilutions were made to provide a total of five test compound concentrations plus control. Aliquots of 100 μl of these different test compound dilutions were added to the appropriate microtiter wells already containing 100 μl of medium, resulting in the required final test compound concentrations.
(§2) Following test compound addition, the plates were incubated for an additional 48 hours at 37° C., 5% CO2, 95% air, and 100% relative humidity. For adherent cells, the assay was terminated by the addition of cold TCA. Cells were fixed in situ by the gentle addition of 50 μl of cold 50% (w/v) TCA and incubated for 60 minutes at 4° C. The supernatant was discarded, and the plates were washed five times with tap water and air dried. Sulforhodamine B (SRB) solution (100 μl) at 0.4% (w/v) in 1% acetic acid was added to each well, and plates were incubated for 10 minutes at room temperature. After staining, unbound dye was removed by washing five times with 1% acetic acid and the plates were air dried. Bound stain was subsequently solubilized with 10 mM trizma base, and the absorbance was read on an automated plate reader at a wavelength of 515 nm. For suspension cells, the methodology was the same except that the assay was terminated by fixing settled cells at the bottom of the wells by gently adding 50 μl of 80% TCA. Using the seven absorbance measurements [time zero, (Tz), control growth, (C), and test growth in the presence of test compound at the five concentration levels (Ti)], the percentage growth was calculated at each of the test compound concentrations levels. Percentage growth inhibition was calculated as: [(Ti−Tz)/(C−Tz)]×100 for concentrations for which Ti≧Tz or [(Ti−Tz)/Tz]×100 for concentrations for which Ti<Tz. Growth inhibition of 50% (GI50) was calculated from [(Ti−Tz)/(C−Tz)]×100=50, which is the test compound concentration resulting in a 50% reduction in the net protein increase (as measured by SRB staining) in control cells during the test compound incubation.

For series [2], the system named is HL-60(TB). The description is as above. To be noted: Leukemia, 48 hours, SRB. In kind it is cell-based. The procedure: as §1, §2
Series [3] concerns PC-3. The description is as above. In kind it is cell-based. As to conditions: PC-3, Prostate Cancer, 48 hours, SRB. The procedure:
as §1, §2

The subject of series [4] is MCF7. Described as above. In kind it is cell-based. To be noted: MCF7, Breast Cancer, 48 hours, SRB. The procedure:
as §1, §2

Series [5] relates to CAKI-1. Described as above. Type of series: cell-based. To be noted: CAKI-1, Renal Cancer, 48 hours, SRB. The procedure:
as §1, §2

Series [6] relates to HT29. Described as above. In kind it is cell-based. As to conditions: HT-29, HT29, Colon Cancer, 48 hours, SRB. The procedure:
as §1, §2

Series [7] concerns LOX IMVI. Described as above. Type of series: cell-based. As to conditions: Melanoma, 48 hours, SRB. The procedure:
as §1, §2

For series [8], the system named is U251. Described as above. Type of series: cell-based. To be noted: U-251, U251, CNS Cancer, 48 hours, SRB. The procedure: as §1, §2
In series [9] the test system is OVCAR-3. The description is as above. In kind it is cell-based. To be noted: OVCAR-3, Ovarian Cancer, 48 hours, SRB. The procedure:
as §1, §2

In series [10] the target is T1, USP7 (Homo sapiens, UniProt Q93009).
T1 construct: full length human USP7 protein; made in house
Briefly: USP7, Ub-PLA2 assay. In kind it is biochemical. As to conditions: for EC50: Ub-PLA2 / NBD C6-HPC fluorescence, 30 minute preincubation, read-out: EC50 for inhibition of USP7. In short, it runs like this:
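Compounds tested against USP7 with DMSO vehicle control and NEM-treated wells as background. Fluorescence (RFU) read-out; % inhibition normalized per plate to mean DMSO and NEM controls.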

Series [11] is described as follows: HCT-116 Cellular Cytotoxicity Assay. To be noted: human, HCT-116 cells, pH 7.2.
Procedure: The purpose of this assay is to determine if any of the synthesized compounds are cytotoxic against HCT-116 cells, as measured by resazurin metabolism. Resazurin is metabolized only by living cells from a non-fluorescent molecule into Resorufin, a highly red fluorescent dye. […] The cells were cultured in an incubator at 37° C. in 5% CO2 and 95% humidified air. […] The final concentration DMSO was 0.5% (v/v) in all samples. The plates were returned to the incubator for 72 hours. Following 72 hours of test compound exposure, 10 μL of 0.2 mg/mL Resazurin (Sigma) in phosphate buffered saline was added to each well and the plate was returned to the incubator for 3-6 hours. Since living cells metabolize Resazurin, the fluorescence of the reduction product of Resazurin was measured using a microplate fluorometer with λex=531 nm and λem=590 nm filters. Resazurin dye in medium without cells was used to determine the background, which was subtracted from the data for all experimental wells.
Series [12] has as its system HCT-116 cells. As to the kind of experiment: HCT-116 Combination Cytotoxicity Assay. In kind it is cell-based, human. As to conditions: constant ratio, 72 hours.

A value given as a limit tells only on which side of the number the result lay.

T1 sequence (Q93009 whole entry): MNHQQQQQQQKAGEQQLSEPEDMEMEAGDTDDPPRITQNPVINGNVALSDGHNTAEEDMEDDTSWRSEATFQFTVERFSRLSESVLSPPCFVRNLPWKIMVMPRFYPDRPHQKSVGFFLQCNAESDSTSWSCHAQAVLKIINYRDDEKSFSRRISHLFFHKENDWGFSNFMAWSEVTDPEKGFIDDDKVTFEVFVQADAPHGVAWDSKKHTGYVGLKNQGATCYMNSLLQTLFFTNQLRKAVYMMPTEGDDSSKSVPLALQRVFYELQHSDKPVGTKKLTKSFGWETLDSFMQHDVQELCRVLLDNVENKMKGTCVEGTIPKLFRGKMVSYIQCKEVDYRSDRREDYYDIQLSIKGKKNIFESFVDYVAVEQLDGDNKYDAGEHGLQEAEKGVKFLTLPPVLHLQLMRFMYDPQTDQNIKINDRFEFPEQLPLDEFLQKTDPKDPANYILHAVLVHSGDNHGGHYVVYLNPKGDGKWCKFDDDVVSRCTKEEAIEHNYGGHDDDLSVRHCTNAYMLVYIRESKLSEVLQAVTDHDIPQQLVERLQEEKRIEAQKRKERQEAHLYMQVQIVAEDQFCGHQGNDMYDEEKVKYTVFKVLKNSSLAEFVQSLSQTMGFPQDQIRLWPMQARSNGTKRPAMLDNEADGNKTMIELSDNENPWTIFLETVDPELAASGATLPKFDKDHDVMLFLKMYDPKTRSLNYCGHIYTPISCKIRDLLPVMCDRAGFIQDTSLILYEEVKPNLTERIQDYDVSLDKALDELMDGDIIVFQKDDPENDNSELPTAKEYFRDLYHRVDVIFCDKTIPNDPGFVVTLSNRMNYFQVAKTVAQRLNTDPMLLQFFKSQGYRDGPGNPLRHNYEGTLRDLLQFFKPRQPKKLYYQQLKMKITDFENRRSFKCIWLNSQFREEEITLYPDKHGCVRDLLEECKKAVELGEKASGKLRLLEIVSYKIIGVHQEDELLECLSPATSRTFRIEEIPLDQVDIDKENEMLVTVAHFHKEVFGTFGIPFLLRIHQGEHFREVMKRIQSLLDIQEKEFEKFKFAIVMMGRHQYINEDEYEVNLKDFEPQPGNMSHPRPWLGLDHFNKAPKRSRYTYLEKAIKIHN

For `CS(=O)(=O)c1cc([N+](=O)[O-])c(Sc2ccc(Cl)cc2Cl)s1` [Example 23, 2-(2,4-dichlorophenyl)sulfanyl-5-methylsulfonyl-3-nitro-thiophene], the GI50 is 12.6 µM in [1]; 2190 nM in series [2]; 3.98 µM in series [3]; 1700 nM in [4]; 2240 nM in series [5]; 1780 nM in series [6]. The GI50 was 1740 nM in series [7], 6.31 µM in series [8] and 1620 nM in series [9]. Moreover, the EC50 in series [10] fell in the range of 1000 to 10000 nM.
For `CN1CCC(NC(=O)c2cc([N+](=O)[O-])c(Sc3c(Cl)cncc3Cl)s2)CC1` [Example 168, 5-((3,5-dichloropyridin-4-yl)thio)-N-(1-methylpiperidin-4-yl)-4-nitrothiophene-2-carboxamide], the concentration for a half-maximal effect (EC50) in series [10] was ≤ 1000 nM. Moreover, it took 6.52 µM to reach a half-maximal effect in [11] (EC50 at 72 h). The “CI (mean ± SD) ED75” value in [12] (combination with Chlormethine) is 0.70 ± 0.10; in series [12] (combination with Doxorubicin), 0.73 ± 0.09; in series [12] (combination with Etoposide) it was 0.54 ± 0.10. In addition, the “CI (mean ± SD) ED90” value stood at 0.78 ± 0.13 in [12] (combination with Chlormethine), 0.81 ± 0.11 in [12] (combination with Doxorubicin) and 0.59 ± 0.14 in series [12] (combination with Etoposide).
Take `O=C(Nc1cnc2ccccc2c1)c1cc([N+](=O)[O-])c(Sc2c(Cl)cncc2Cl)s1` [Example 173, 5-((3,5-dichloropyridin-4-yl)thio)-4-nitro-N-(quinolin-3-yl)thiophene-2-carboxamide]: the “USP7 inhibition, result in words” value in series [10] (USP7, Ub-PLA2 assay) is given as “Particularly good results”. Moreover, in series [10], the EC50 is ≤ 1000 nM. This compound displayed an EC50 at 72 h in series [11] of 5.15 µM.
In the case of `CS(=O)(=O)c1cc([N+](=O)[O-])c(Sc2c(Cl)cncc2Cl)s1` [Example 22, 3,5-dichloro-4-[(5-methylsulfonyl-3-nitro-2-thienyl)sulfanyl]pyridine], the GI50 was 13.8 µM in [1]; 1410 nM in [2]; 3.72 µM in [3]; 2040 nM in series [4]; 1820 nM in series [5]; 2040 nM in series [6]. The figures for the GI50 in series [7], in [8] and in series [9] were 10000 nM, 12.9 µM and 1820 nM, respectively. Besides, the EC50 in series [10] was 1000 to 10000 nM.
For the compound `CC(=O)c1cc([N+](=O)[O-])c(Oc2ccc(Cl)cc2Cl)s1` [Example 271, 1-(5-(2,4-dichlorophenoxy)-4-nitrothiophen-2-yl)ethanone], in series [10], the EC50 was 1000 to 10000 nM. In series [11], the EC50 at 72 h stood at 8.54 µM.
For `COc1ccc(NC(=O)c2cc([N+](=O)[O-])c(Sc3c(Cl)cncc3Cl)s2)cn1` [Example 175, 5-((3,5-dichloropyridin-4-yl)thio)-N-(6-methoxypyridin-3-yl)-4-nitrothiophene-2-carboxamide], in that order: ≤ 1000 nM and 7.23 µM.
On to `O=C(Nc1ccon1)c1cc([N+](=O)[O-])c(Sc2c(Cl)cncc2Cl)s1` [Example 171, 5-((3,5-dichloropyridin-4-yl)thio)-N-(isoxazol-3-yl)-4-nitrothiophene-2-carboxamide], for which, in [10], the EC50 is ≤ 1000 nM. The same compound had an EC50 at 72 h in [11] of 10.9 µM.
Taken in the same sequence, the figures for `CC(=O)c1cc([N+](=O)[O-])c(Sc2cc(Cl)cc(Cl)c2)s1` [Example 9, 1-[5-(3,5-Dichlorophenylsulfanyl)-4-nitro-2-thienyl]ethanone] were 1000 to 10000 nM and 8.13 µM.
Consider `O=C(Nc1nccs1)c1cc([N+](=O)[O-])c(Sc2c(Cl)cncc2Cl)s1` [Example 172, 5-((3,5-dichloropyridin-4-yl)thio)-4-nitro-N-(thiazol-2-yl)thiophene-2-carboxamide], for which the EC50 in [10] was ≤ 1000 nM. Further, the EC50 at 72 h in [11] worked out at 12.9 µM.
For `CC(=O)c1cc([N+](=O)[O-])c(Sc2c(Cl)cccc2Cl)s1` [Example 7, 1-[5-(2,6-Dichlorophenylsulfanyl)-4-nitro-2-thienyl]ethanone], in that order: 1000 to 10000 nM and 30.6 µM.
For `COc1cc(NC(=O)c2cc(C#N)c(Sc3c(Cl)cncc3Cl)s2)ccc1OCCCN(C)C` [Example 205, 4-cyano-5-((3,5-dichloropyridin-4-yl)thio)-N-(4-(3-(dimethylamino)propoxy)-3-methoxyphenyl)thiophene-2-carboxamide], in that order: ≤ 1000 nM and 3.1 µM.
Take `CC(=O)c1cc([N+](=O)[O-])c(Sc2ccc(F)cc2F)s1` [Example 3, 1-[5-(2,4-Difluorophenylsulfanyl)-4-nitro-2-thienyl]ethanone]: the GI50 came to 15.5 µM in series [1]; 2750 nM in series [2]; 12 µM in series [3]; 2570 nM in series [4]; 1820 nM in [5]; 3800 nM in series [6]. In addition, the GI50 was found to be 1510 nM in series [7], 4.79 µM in [8] and 2040 nM in series [9].
As for `CC(=O)c1cc([N+](=O)[O-])c(Sc2c(Cl)cncc2Cl)s1` [Example 17, 1-[5-[(3,5-dichloro-4-pyridyl)sulfanyl]-4-nitro-2-thienyl]ethanone], the GI50 amounted to 3.09 µM in series [1]; 1910 nM in [2]; 2.75 µM in series [3]; 1910 nM in [4]; 1860 nM in series [5]; 1860 nM in [6]. In addition, the GI50 amounted to 1510 nM in [7], 1.95 µM in series [8] and 1410 nM in series [9]. Further, the EC50 in series [10] is 1000 to 10000 nM. Besides, in series [11], the EC50 at 72 h stood at 8.66 µM.
On to `CC(=O)c1cc([N+](=O)[O-])c(Sc2ccc(Cl)c(Cl)c2)s1` [Example 8, 1-[5-(3,4-Dichlorophenylsulfanyl)-4-nitro-2-thienyl]ethanone], for which, in series [10], the EC50 lay within 1000 to 10000 nM. The same compound came in with an EC50 at 72 h in series [11] of 14.8 µM.
Taken in the same sequence, the figures for `O=C(Nc1ccc2ncccc2c1)c1cc([N+](=O)[O-])c(Sc2c(Cl)cncc2Cl)s1` [Example 180, 5-((3,5-dichloropyridin-4-yl)thio)-4-nitro-N-(quinolin-6-yl)thiophene-2-carboxamide] were ≤ 1000 nM and 7.62 µM.
